The structures appear in SMILES notation. Converted amounts (≈) assume the structure as drawn.

Common to all, as to experiment: ≥ marks a high value that may be exact or a test limit, other limits are often not marked, values filed in µg/mL are converted to µM
Assay [1] concerns Candida albicans ATCC 2002.
In assay [2] the test system is Escherichia coli IS218#.
For assay [3], the system named is Enterococcus faecalis ATCC 29212.
Assay [4] concerns Pseudomonas aeruginosa ATCC 27853.
Assay [5] relates to Klebsiella pneumoniae ATCC 700603.
Assay [6] has as its system Enterobacter cloacae ATCC 13047.
Assay [7] deals with Shigella dysenteriae.
Assay [8] concerns Escherichia coli ATCC 25922.
In assay [9] the test system is Staphylococcus aureus ATCC 25923.
In assay [10] the test system is Pseudomonas aeruginosa CMCCB 1010.
Assay [11] has as its system Candida parapsilosis ATCC 22019.
In assay [12] the test system is Candida albicans ATCC 90028.
Assay [13] relates to Pseudomonas aeruginosa IS350#.
The subject of assay [14] is Escherichia coli IS37#.
In assay [15] the test system is Escherichia coli IS117#.
Assay [16] deals with Pseudomonas aeruginosa PAOLC1-6.
For assay [17], the system named is Pseudomonas aeruginosa Ps71.
Assay [18] has as its system Pseudomonas aeruginosa Ps6.
Assay [19] relates to Pseudomonas aeruginosa Ps2.
In assay [20] the test system is Pseudomonas aeruginosa Ps21.
The subject of assay [21] is Pseudomonas aeruginosa Ps4.
The subject of assay [22] is Pseudomonas aeruginosa Ps1.
Assay [23] relates to Pseudomonas aeruginosa PAO1.
Assay [24] relates to Pseudomonas aeruginosa Ps64.
The subject of assay [25] is Pseudomonas aeruginosa Ps74.
Assay [26] has as its system Pseudomonas aeruginosa TNP004.
Assay [27] has as its system Xanthomonas campestris pv. Vesicatoria 2133-2.
Assay [28] has as its system Pseudomonas syringae pv. syringae EPS 94.
For assay [29], the system named is Erwinia amylovora PMV 6076.
Assay [30] relates to Escherichia coli K-12.
The test system of assay [31] is Staphylococcus aureus.
For assay [32], the system named is Staphylococcus aureus UAMS-1.
For assay [33], the system named is Escherichia coli DC2.
The subject of assay [34] is Escherichia coli BW25113 ΔsbmA.
Assay [35] concerns Escherichia coli BW25113 ΔwaaG.
Assay [36] deals with Escherichia coli BW25113.
In assay [37] the test system is Pseudomonas putida NCIM 2102.
Assay [38] concerns Bacillus subtilis.
Assay [39] concerns Escherichia coli W160-37.
For assay [40], the system named is Staphylococcus aureus PEP 4/3.

In the case of `CC[C@H](C)[C@@H]1NC(=O)[C@H](C)NC(=O)[C@@H](NC(=O)[C@H](Cc2ccccc2)NC(=O)[C@@H](NC(=O)[C@@H](NC(=O)[C@@H]2CCCN2C(=O)[C@@H](NC(=O)[C@@H](NC(=O)[C@H](CCCCN)NC(=O)CNC(=O)[C@H](CO)NC(=O)[C@@H](NC(=O)[C@H](CS)NC(=O)[C@H](CCC(=O)O)NC(=O)[C@H](CC(C)C)NC(=O)CNC(=O)[C@@H]2CCCN2C(=O)[C@H](CC(C)C)NC(=O)[C@@H](N)Cc2ccccc2)C(C)C)[C@@H](C)CC)C(C)C)[C@@H](C)O)C(C)C)CSSC[C@@H](C(=O)O)NC(=O)[C@H]([C@@H](C)CC)NC(=O)[C@H](CCCN=C(N)N)NC(=O)[C@H]([C@@H](C)O)NC1=O` [FLPGLECVSGKIVPTVFCAITRIC], the MIC (in general, the lowest concentration that inhibits growth of the organism) in assay [1] stood at 1.95 µM (≈ 5 µg/mL); in [2], 7.79 µM (≈ 20 µg/mL); in assay [3], 3.9 µM (≈ 9.99 µg/mL); in assay [4], 7.79 µM (≈ 20 µg/mL); in [5], 1.95 µM (≈ 5 µg/mL); in [6], 3.9 µM (≈ 9.99 µg/mL). The minimum inhibitory concentration (MIC) stood at 3.9 µM (≈ 9.99 µg/mL) in assay [7]; 0.974 µM (≈ 2.5 µg/mL) in assay [8]; 1.95 µM (≈ 5 µg/mL) in [9]; 1.95 µM (≈ 5 µg/mL) in assay [10]; 3.9 µM (≈ 9.99 µg/mL) in assay [11]; 3.9 µM (≈ 9.99 µg/mL) in assay [12]. Further, the MIC was found to be 7.79 µM (≈ 20 µg/mL) in assay [13], 7.79 µM (≈ 20 µg/mL) in [14] and 3.9 µM (≈ 9.99 µg/mL) in assay [15].

Take `NC(=O)[C@H](CCCN=C(N)N)NC(=O)[C@H](CCCN=C(N)N)NC(=O)[C@H](Cc1c[nH]c2ccccc12)NC(=O)[C@H](Cc1ccccc1)NC(=O)[C@H](CCCN=C(N)N)NC(=O)[C@H](CCCN=C(N)N)NC(=O)[C@H](Cc1c[nH]c2ccccc12)NC(=O)[C@@H](N)Cc1ccccc1` [FWRRFWRR]: the MIC is at least 34.3 µM in assay [16]; at least 34.3 µM in assay [17]; at least 34.3 µM in [18]; at least 135 µM in [19]; at least 135 µM in assay [20]; at least 47.7 µM in [21]. Also, the MIC in assay [22] is at least 34.3 µM; in [23] it was 34.3 µM (≈ 44.9 µg/mL); in [24], at least 135 µM; in [25], at least 135 µM; in assay [26], at least 34.3 µM.

As to `CC[C@H](C)[C@H](NC(=O)[C@H](CCCCN)NC(=O)[C@H](CCCCN)NC(=O)[C@H](Cc1ccccc1)NC(=O)[C@H](CC(C)C)NC(=O)[C@H](CCCCN)NC(=O)[C@H](CCCCN)NC(=O)[C@H](CC(C)C)NC(=O)[C@H](Cc1ccc(O)cc1)NC(=O)[C@H](CCCCN)NC(=O)[C@H](CC(C)C)NC(=O)[C@@H](NC(=O)[C@H](CCCCN)NC(=O)[C@H](CCCCN)NC(=O)[C@H](Cc1ccccc1)NC(=O)[C@H](CC(C)C)NC(=O)[C@H](CCCCN)NC(=O)[C@@H](N)CCCCN)[C@@H](C)CC)C(=O)N[C@@H](CC(C)C)C(=O)N[C@@H](CCCCN)C(=O)N[C@@H](Cc1ccc(O)cc1)C(=O)N[C@@H](CC(C)C)C(=O)O` [KKLFKKILKYLKKLFKKILKYL], the figures for the MIC in assay [27], in assay [28] and in [29] were 1.77 µM (≈ 5 µg/mL), 6.12 µM (≈ 17.3 µg/mL) and 14.1 µM (≈ 40 µg/mL), respectively.

For the compound `CC[C@H](C)[C@H](NC(=O)[C@H](CCCCN)NC(=O)[C@H](CCC(=O)O)NC(=O)[C@H](CCCCN)NC(=O)[C@H](C)NC(=O)[C@H](CCCCN)NC(=O)[C@H](CCCN=C(N)N)NC(=O)[C@H](Cc1ccccc1)NC(=O)[C@H](Cc1ccccc1)NC(=O)[C@H](CC(=O)O)NC(=O)CNC(=O)[C@H](CC(C)C)NC(=O)[C@@H](N)CC(C)C)C(=O)NCC(=O)N[C@@H](CCCCN)C(=O)N[C@@H](CCC(=O)O)C(=O)N[C@@H](Cc1ccccc1)C(=O)N[C@@H](CCCCN)C(=O)N[C@@H](CCCN=C(N)N)C(=O)N[C@H](C(=O)N[C@H](C(=O)N[C@@H](CCC(N)=O)C(=O)N[C@@H](CCCN=C(N)N)C(=O)O)C(C)C)[C@@H](C)CC` [LLGDFFRKAKEKIGKEFKRIVQR], the MIC in assay [30] was at least 80 µM; in [31] it was over 24 µM; in [32] it was at least 160 µM; in [33], 9 µM (≈ 25.3 µg/mL).

`CC[C@H](C)[C@H](NC(=O)[C@H](CCCN=C(N)N)NC(=O)[C@@H](N)CCCN=C(N)N)C(=O)N[C@@H](CCCN=C(N)N)C(=O)N1CCC[C@H]1C(=O)N[C@@H](CCCN=C(N)N)C(=O)N1CCC[C@H]1C(=O)N1CCC[C@H]1C(=O)N[C@@H](CCCN=C(N)N)C(=O)N[C@@H](CC(C)C)C(=O)N1CCC[C@H]1C(=O)N[C@@H](CCCN=C(N)N)C(=O)N1CCC[C@H]1C(=O)N[C@@H](CCCN=C(N)N)C(=O)N1CCC[C@H]1C(=O)N[C@@H](CCCN=C(N)N)C(=O)N1CCC[C@H]1C(=O)N[C@@H](CC(C)C)C(=O)N1CCC[C@H]1C(=O)N[C@@H](Cc1ccc(O)cc1)C(=O)N1CCC[C@H]1C(=O)N[C@@H](CCCN=C(N)N)C(=O)N1CCC[C@H]1C(=O)O` [RRIRPRPPRLPRPRPRPLPYPRP]: the MIC in [34] was determined as 8 µM (≈ 23.2 µg/mL); in assay [35] it was 0.5 µM (≈ 1.45 µg/mL); in assay [8], 1 µM (≈ 2.9 µg/mL); in [36], 1 µM (≈ 2.9 µg/mL).

Take `CC[C@H](C)[C@H](NC(=O)[C@H](Cc1c[nH]c2ccccc12)NC(=O)[C@H](CCCCN)NC(=O)[C@H](CO)NC(=O)[C@H](CC(C)C)NC(=O)[C@H](Cc1ccccc1)NC(=O)[C@@H](NC(=O)[C@H](CCC(=O)O)NC(=O)[C@H](CC(C)C)NC(=O)[C@H](CC(C)C)NC(=O)[C@H](CCCCN)NC(=O)[C@@H]1CCCN1C(=O)[C@H](CC(N)=O)NC(=O)[C@H](C)NC(=O)[C@H](CC(C)C)NC(=O)[C@H](CCCN=C(N)N)NC(=O)[C@H](CC(N)=O)NC(=O)[C@H](C)NC(=O)[C@H](CC(C)C)NC(=O)[C@H](CCCCN)NC(=O)[C@H](C)NC(=O)[C@H](Cc1ccc(O)cc1)NC(=O)[C@H](CCCN=C(N)N)NC(=O)[C@H](CO)NC(=O)[C@H](CC(C)C)NC(=O)[C@@H](N)CO)[C@@H](C)O)C(=O)NCC(=O)O` [SLSRYAKLANRLANPKLLETFLSKWIG]: the MIC in [37] was 17.7 µM (≈ 54.8 µg/mL); in assay [38], 4.58 µM (≈ 14.1 µg/mL); in assay [39] it was 4.58 µM (≈ 14.1 µg/mL); in assay [40] it was 14.5 µM (≈ 44.7 µg/mL).

The values are drawn from DBAASP.
